{"source": "patent US8609727B2", "about": "“Dicarboxylic acid derivatives and their use” (Bayer Intellectual Property GmbH, priority 2005, dated 2013)"}
{"target": "T1, Haem-containing sGC (recombinant soluble guanylate cyclase) (Rattus norvegicus, UniProt P20595)", "T1 construct": "made in house; host or cells: Sf9 insect cells (baculovirus)", "T1 sequence (P20595 1-619)": "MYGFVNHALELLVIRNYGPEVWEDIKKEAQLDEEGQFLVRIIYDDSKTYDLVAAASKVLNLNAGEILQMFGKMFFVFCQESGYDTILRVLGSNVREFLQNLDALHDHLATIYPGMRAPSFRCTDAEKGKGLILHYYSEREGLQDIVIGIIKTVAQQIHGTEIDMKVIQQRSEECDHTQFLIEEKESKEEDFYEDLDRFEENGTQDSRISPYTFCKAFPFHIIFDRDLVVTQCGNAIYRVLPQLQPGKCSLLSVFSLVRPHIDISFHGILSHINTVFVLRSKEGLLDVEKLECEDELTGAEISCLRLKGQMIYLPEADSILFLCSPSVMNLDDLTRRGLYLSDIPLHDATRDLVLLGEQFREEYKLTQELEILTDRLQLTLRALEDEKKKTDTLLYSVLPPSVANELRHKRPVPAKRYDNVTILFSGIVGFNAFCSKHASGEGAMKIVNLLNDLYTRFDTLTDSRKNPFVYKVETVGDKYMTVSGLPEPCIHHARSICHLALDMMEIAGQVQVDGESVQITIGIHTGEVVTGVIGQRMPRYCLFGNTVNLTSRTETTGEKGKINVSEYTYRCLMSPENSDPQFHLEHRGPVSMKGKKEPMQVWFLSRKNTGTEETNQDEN", "T1 sequence (P19686 1-690 partner)": "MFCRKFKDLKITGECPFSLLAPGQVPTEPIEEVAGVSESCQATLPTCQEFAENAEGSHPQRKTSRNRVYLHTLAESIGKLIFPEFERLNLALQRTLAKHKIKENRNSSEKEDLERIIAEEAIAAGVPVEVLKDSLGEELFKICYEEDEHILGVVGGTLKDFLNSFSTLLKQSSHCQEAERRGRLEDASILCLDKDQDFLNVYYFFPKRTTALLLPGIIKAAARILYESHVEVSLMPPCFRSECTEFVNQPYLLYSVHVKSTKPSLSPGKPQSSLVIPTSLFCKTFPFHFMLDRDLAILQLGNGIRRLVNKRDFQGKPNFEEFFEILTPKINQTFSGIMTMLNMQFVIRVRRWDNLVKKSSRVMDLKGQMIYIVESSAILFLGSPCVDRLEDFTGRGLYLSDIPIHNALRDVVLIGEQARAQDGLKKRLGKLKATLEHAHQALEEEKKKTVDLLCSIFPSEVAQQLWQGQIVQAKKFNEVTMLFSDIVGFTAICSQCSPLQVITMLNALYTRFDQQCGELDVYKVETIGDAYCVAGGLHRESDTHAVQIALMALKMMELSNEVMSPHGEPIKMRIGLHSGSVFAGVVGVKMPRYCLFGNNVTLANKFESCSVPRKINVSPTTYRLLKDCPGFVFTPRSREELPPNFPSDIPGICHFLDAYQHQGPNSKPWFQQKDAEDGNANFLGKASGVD", "test": "Stimulation of recombinant soluble guanylate cyclase (sGC) in vitro, haem-containing enzyme", "format": "biochemical", "details": "0.1 μM DEA/NO, 0.0 μM Example 5", "from_the_text": "(§1) B-2. Stimulation of Recombinant Soluble Guanylate Cyclase (sGC) In Vitro:\n(§2) Hoenicka, E. M. Becker, H. Apeler, T. Sirichoke, H. Schroeder, R. Gerzer and J.-P. Stasch, “Purified soluble guanylyl cyclase expressed in a baculovirus/Sf9 system: Stimulation by YC-1, nitric oxide, and carbon oxide”, J. Mol. Med. 77 (1999), 14-23. The haem-free guanylate cyclase is obtained by adding Tween 20 to the sample buffer (0.5% in the final concentration).\n(§3) The activation of sGC by a test substance is reported as n-fold stimulation of the basal activity.", "units": {"Stimulation (n-fold) Haem-containing sGC by DEA/NO alone": "n-fold"}}
{"smiles": "CCN(CC)[N+]([O-])=NO", "note": "[DEA/NO, 2-(N,N-diethylamino)diazenolate 2-oxide, reference compound]", "Stimulation (n-fold) Haem-containing sGC by DEA/NO alone": 78.7}
{"target": "T1, Haem-containing sGC (recombinant soluble guanylate cyclase)", "test": "Stimulation of recombinant soluble guanylate cyclase (sGC) in vitro, haem-containing enzyme", "format": "biochemical", "details": "10 μM ODQ, 0.0 μM Example 5", "from_the_text": "as §1, §2, §3", "units": {"Stimulation (n-fold) Haem-containing sGC with ODQ alone": "n-fold"}}
{"smiles": "O=c1onc2cnc3ccccc3n12", "note": "[ODQ, 1H-1,2,4-oxadiazole-(4,3a)-quinoxalin-1-one, reference compound]", "Stimulation (n-fold) Haem-containing sGC with ODQ alone": 38.8}
{"target": "T2, Haem-free sGC (recombinant soluble guanylate cyclase) (Rattus norvegicus, UniProt P20595)", "T2 construct": "made in house; host or cells: Sf9 insect cells (baculovirus)", "T2 sequence (P20595 1-619)": "T1 sequence (P20595 1-619)", "T2 sequence (P19686 1-690 partner)": "T1 sequence (P19686 1-690 partner)", "test": "Stimulation of recombinant soluble guanylate cyclase (sGC) in vitro, haem-free enzyme", "format": "biochemical", "details": "10 μM ODQ, 0.0 μM Example 5", "description": "as §1\nInvestigations on the stimulation of recombinant soluble guanylate cyclase (sGC) by the compounds according to the invention with and without sodium nitroprusside, and with and without the haem-dependent sGC inhibitor 1H-1,2,4-oxadiazole-(4,3a)-quinoxalin-1-one (ODQ) are carried out by the method described in detail in the following reference: M. Hoenicka, E. M. Becker, H. Apeler, T. Sirichoke, H. Schroeder, R. Gerzer and J.-P. Stasch, “Purified soluble guanylyl cyclase expressed in a baculovirus/Sf9 system: Stimulation by YC-1, nitric oxide, and […]”, J. Mol. Med. 77 (1999), 14-23. The haem-free guanylate cyclase is obtained by adding Tween 20 to the sample buffer (0.5% in the final concentration).\nas §3", "units": {"Stimulation (n-fold) Haem-free sGC with ODQ alone": "n-fold"}}
{"smiles": "O=c1onc2cnc3ccccc3n12", "note": "[ODQ, 1H-1,2,4-oxadiazole-(4,3a)-quinoxalin-1-one, reference compound]", "Stimulation (n-fold) Haem-free sGC with ODQ alone": 2.0}
{"system": "saphenous artery rings", "test": "Vasorelaxant effect in vitro (phenylephrine-contracted artery rings)", "format": "cell-based, Rabbits", "details": "Oryctolagus cuniculus, rabbit saphenous artery rings, contraction induced by phenylephrine", "description": "(§4) B-1. Vasorelaxant Effect In Vitro:\n(§5) Rabbits are anaesthetized and sacrificed by intravenous injection of thiopental sodium (about 50 mg/kg) and exsanguinated. The saphenous artery is removed and divided into rings 3 mm wide. The rings are mounted singly on in each case a pair of triangular hooks open at the end and made of 0.3 mm-thick special wire (Remanium®). Each ring is placed under an initial tension in 5 ml organ baths with Krebs-Henseleit solution which is at 37° C., is gassed with 95% O2/5% CO2 and has the following composition: NaCl 119 mM; KCl 4.8 mM; CaCl2×2H2O 1 mM; MgSO4×7H2O 1.4 mM; KH2PO4 1.2 mM; NaHCO3 25 mM; glucose 10 mM; bovine serum albumin 0.001%. The force of contraction is detected with Statham UC2 cells, amplified and digitized via A/D converters (DAS-1802 HC, Keithley Instruments, Munich) and recorded in parallel on chart recorders. Contractions are induced by addition of phenylephrine.\n(§6) After several (generally 4) control cycles, the substance to be investigated is added in each further run in increasing dosage, and the height of the contraction achieved under the influence of the test substance is compared with the height of the contraction reached in the last preceding run. The concentration necessary to reduce the contraction reached in the preceding control by 50% is calculated from this (IC50). The standard application volume is 5 μl. The proportion of DMSO in the bath solution corresponds to 0.1%.", "units": {"IC50": "nM"}}
{"smiles": "O=C(O)c1ccc(CCC(/C=C/c2ccccc2OCc2ccc(OC(F)(F)F)cc2)Cc2ccc(C(=O)O)cc2)cc1", "note": "(stereo not shown) [Example 45]", "IC50": 6}
{"smiles": "O=C(O)c1ccc(CCC(/C=C/c2ccccc2OCCCC(F)(F)F)Cc2ccc(C(=O)O)cc2)cc1", "note": "(racemic) [Example 11, 4-{(4E)-3-(4-Carboxybenzyl)-5-[2-(4,4,4-trifluorobutoxy)phenyl]pent-4-en-1-yl}benzoic Acid]", "IC50": 129}
{"smiles": "O=C(O)c1ccc(CCC(/C=C/c2cc(F)ccc2OCc2ccc(OC(F)(F)F)cc2)Cc2ccc(C(=O)O)cc2)cc1", "note": "(stereo not shown) [Example 56]", "IC50": 77}
{"smiles": "O=C(O)c1ccc(CCC(/C=C/c2ccccc2OC(F)(F)c2ccc(C(F)(F)F)cc2)Cc2ccc(C(=O)O)cc2)cc1", "note": "(stereo not shown) [Example 50]", "IC50": 370}
{"smiles": "O=C(O)c1ccc(CCC(/C=C/c2ccccc2OCc2cc(C(F)(F)F)cc(C(F)(F)F)c2)Cc2ccc(C(=O)O)cc2)cc1", "note": "(stereo not shown) [Example 48]", "IC50": 4}
{"smiles": "O=C(O)c1ccc(CCC(/C=C/c2cc(F)ccc2OCc2ccc(C(F)(F)F)cc2)Cc2ccc(C(=O)O)cc2)cc1", "note": "(single isomer, unassigned) [Example 54, 4-[(4E)-3-(4-Carboxybenzyl)-5-(5-fluoro-2-{[4-(trifluoromethyl)benzyl]oxy}phenyl)pent-4-en-1-yl]benzoic Acid]", "IC50": 90}
{"smiles": "O=C(O)c1ccc(CCC(/C=C/c2ccccc2OCc2ccc(CCc3ccccc3)cc2)Cc2ccc(C(=O)O)cc2)cc1", "note": "(racemic) [Example 7, 4-[(4E)-3-(4-Carboxybenzyl)-5-(2-{[4-(2-phenylethyl)benzyl]oxy}phenyl)pent-4-en-1-yl]benzoic acid]", "IC50": 21}
{"smiles": "O=C(O)c1ccc(CCC(/C=C/c2ccccc2OCCCCC(F)(F)F)Cc2ccc(C(=O)O)cc2)cc1", "note": "(racemic) [Example 42, 4-[(4E)-3-(4-Carboxybenzyl)-5-{2-[(5,5,5-trifluoropentyl)oxy]phenyl}pent-4-en-1-yl]benzoic Acid]", "IC50": 19}
{"smiles": "O=C(O)c1ccc(CCC(/C=C/c2ccccc2OCc2ccc(C(F)(C(F)(F)F)C(F)(F)F)cc2)Cc2ccc(C(=O)O)cc2)cc1", "note": "(stereo not shown) [Example 44, 4-{(4E)-3-(4-Carboxybenzyl)-5-[2-({4-[1,2,2,2-tetrafluoro-1-(trifluoromethyl)ethyl]benzyl}oxy)-phenyl]pent-4-en-1-yl}benzoic Acid]", "IC50": 22}
{"smiles": "O=C(O)c1ccc(CCC(C=Cc2ccccc2OCc2ccc(-c3ccc(C(F)(F)F)cc3)cc2)Cc2ccc(C(=O)O)cc2)cc1", "note": "(stereo not shown) [Example 10, 4-[(4E/Z)-3-(4-Carboxybenzyl)-5-(2-{[4′-(trifluoromethyl)biphenyl-4-yl]methoxy}phenyl)pent-4-en-1-yl]benzoic Acid]", "IC50": 48}
{"smiles": "COc1ccccc1/C=C/C(CCc1ccc(C(=O)O)cc1)Cc1ccc(C(=O)O)cc1", "note": "(racemic) [Example 13, 4-[(4E)-3-(4-Carboxybenzyl)-5-(2-methoxyphenyl)pent-4-en-1-yl]benzoic Acid]", "IC50": 52.2}
{"smiles": "CCCCCOc1ccccc1/C=C/C(CCc1ccc(C(=O)O)cc1)Cc1ccc(C(=O)O)cc1", "note": "(racemic) [Example 17, 4-{(4E)-3-(4-Carboxybenzyl)-5-[2-(pentyloxy)phenyl]pent-4-en-1-yl}benzoic Acid]", "IC50": 1.1}
{"smiles": "O=C(O)c1ccc(CCC(/C=C/c2cc(F)ccc2OCc2ccc(C(F)(F)F)cc2)Cc2ccc(C(=O)O)cc2)cc1", "note": "(stereo not shown) [Example 55]", "IC50": 287}
{"system": "saphenous artery rings", "test": "Vasorelaxant effect in vitro (phenylephrine-contracted artery rings)", "format": "cell-based, Rabbits", "details": "rabbit saphenous artery rings, contraction induced by phenylephrine", "description": "as §4, §5, §6", "units": {"IC50": "nM"}}
{"smiles": "O=C(O)c1ccc(CCC(/C=C/c2ccccc2OCCCCCc2ccccc2)Cc2ccc(C(=O)O)cc2)cc1", "note": "(racemic) [Example 6, 4-((4E)-3-(4-Carboxybenzyl)-5-{2-[(5-phenylpentyl)oxy]phenyl}pent-4-en-1-yl)benzoic Acid]", "IC50": 122}
{"smiles": "CC(C)(C)c1ccc(COc2ccccc2/C=C/C(CCc2ccc(C(=O)O)cc2)Cc2ccc(C(=O)O)cc2)cc1", "note": "(racemic) [Example 3, 4-[(4E)-5-{2-[(4-tert-Butylbenzyl)oxy]phenyl}-3-(4-carboxybenzyl)pent-4-en-1-yl]benzoic Acid]", "IC50": 4.7}
{"smiles": "CC(C)(C)c1ccc(COc2ccccc2/C=C/C(CCc2ccc(C(=O)O)cc2)Cc2ccc(C(=O)O)cc2)cc1", "note": "(racemic) [Example 2, 4-[(4E)-5-{2-[(4-tert-Butylbenzyl)oxy]phenyl}-3-(4-carboxybenzyl)pent-4-en-1-yl]benzoic Acid]", "IC50": 0.54}
